Consider 18 compounds from PubChem BioAssay (NCI).

Test systems include U251 CNS; NCI/ADR-RES ovarian; SN12C renal; HT29 colon; BT-549 breast; NCI-H226 lung; UACC-62 melanoma; RXF 393 renal.
Holding throughout (assay): NCI anticancer screen, dose series, 48 h

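In this assay, cells in 96-well plates receive the compound at five concentrations for 48 hours. Endpoints are linearly interpolated between the surrounding concentrations. Here, GI50 denotes the concentration required for 50% inhibition of growth. At the TGI there is no net growth.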 Some results are limits rather than exact numbers.

With `COc1ccc(N2C(=O)C3c4[nH]c5ccccc5c4C4CCC(C(C)C)CC4C3C2=O)cc1` (configuration not stated), the TGI in the assay on U251 CNS, in the assay on NCI/ADR-RES ovarian, in the assay with SN12C renal, with HT29 colon, with BT-549 breast and in the assay with NCI-H226 lung was greater than 100 µM throughout. Further, the TGI with UACC-62 melanoma was greater than 100 µM.
Turning to `COC(=O)c1ccc(C)cc1C1CN=NC12Cc1cc(C)c(C)cc1C2=O` (configuration not stated), the TGI in the assay with U251 CNS, in the assay on NCI/ADR-RES ovarian, in the assay with RXF 393 renal, in the assay on SN12C renal, in the assay with HT29 colon and with NCI-H226 lung was greater than 100 µM each time.
As to `Oc1c(I)cc(I)cc1CNCCCN(Cc1ccccn1)Cc1ccccn1`, the GI50 is 1.11 µM in the assay on U251 CNS; 1.44 µM in the assay with NCI/ADR-RES ovarian; 0.866 µM in the assay on RXF 393 renal; 0.99 µM in the assay with SN12C renal; 1.74 µM in the assay on HT29 colon; 0.902 µM in the assay on NCI-H226 lung. In the assay with UACC-62 melanoma, the GI50 is 0.907 µM. The TGI in the assay with U251 CNS was determined as 2.68 µM; with NCI/ADR-RES ovarian, 4.29 µM; in the assay on RXF 393 renal, 1.66 µM; with SN12C renal, 2.12 µM; in the assay with HT29 colon it was 10.2 µM; in the assay with NCI-H226 lung, 2 µM. For the same compound, in the assay on UACC-62 melanoma, the TGI was determined as 1.74 µM.
Take `CCCCNC(=S)/N=C/c1c(O)c2ccccc2oc1=O`: the TGI with U251 CNS, in the assay on NCI/ADR-RES ovarian, in the assay on SN12C renal, with HT29 colon and in the assay with NCI-H226 lung was greater than 100 µM each time.
Take `CC1NOC(NS(=O)(=O)c2ccc(N=Nc3c(O)c(C(=O)O)cc4ccccc34)cc2)C1C` (configuration not stated): the TGI in the assay on U251 CNS, in the assay with NCI/ADR-RES ovarian, with RXF 393 renal, in the assay on HT29 colon, with BT-549 breast and in the assay on NCI-H226 lung was greater than 100 µM in each case. Further, the TGI in the assay on UACC-62 melanoma is greater than 100 µM.
As for `ClCc1c(-c2ccccc2)nn(-c2ccccc2)c1CCl`, the TGI with U251 CNS is 27.6 µM; in the assay with NCI/ADR-RES ovarian, greater than 100 µM; with RXF 393 renal, 28.3 µM; in the assay on SN12C renal it was 42.3 µM; with HT29 colon it was 31.9 µM; in the assay on NCI-H226 lung it was 72.8 µM. The TGI in the assay with UACC-62 melanoma was 21.4 µM.
With `COc1ccc(OC)c(CNc2ccc(O)c(C(=O)NCCc3ccc(F)cc3)c2)c1`, the TGI is 24.9 µM in the assay on U251 CNS; greater than 100 µM with NCI/ADR-RES ovarian; 71.9 µM in the assay with SN12C renal; 47.5 µM in the assay with HT29 colon; 73.6 µM in the assay on BT-549 breast; 25.7 µM with UACC-62 melanoma.
As for `[N-]=[N+]=C1CNC(=O)NC1=O`, the TGI with U251 CNS, in the assay with NCI/ADR-RES ovarian, in the assay on RXF 393 renal, in the assay with SN12C renal, in the assay with HT29 colon and with NCI-H226 lung was greater than 100 µM in each case. The TGI with UACC-62 melanoma was greater than 100 µM.
In the case of `c1ccc(C(=NNc2nc3ccccc3[nH]2)c2ccccn2)nc1`, the TGI with U251 CNS is greater than 69 µM; with NCI/ADR-RES ovarian, 0.583 µM; in the assay on HT29 colon, 12.1 µM; in the assay with BT-549 breast, 97.9 µM; in the assay with NCI-H226 lung it was 0.448 µM.
For `c1ccc([C@H]2CN3CCSC3=N2)cc1`, the TGI with U251 CNS, with NCI/ADR-RES ovarian, in the assay with RXF 393 renal, in the assay on SN12C renal, in the assay with HT29 colon and in the assay with NCI-H226 lung was greater than 100 µM each time. Moreover, the TGI in the assay with UACC-62 melanoma was greater than 100 µM.
For `O=C(NN=C1CCCCC1)Nc1ccccc1Cl`, the TGI is greater than 100 µM in the assay on U251 CNS; 63.9 µM with NCI/ADR-RES ovarian; greater than 100 µM in the assay on SN12C renal; greater than 100 µM in the assay on HT29 colon; greater than 100 µM in the assay on BT-549 breast; greater than 100 µM in the assay on NCI-H226 lung. The compound also returned a TGI in the assay with UACC-62 melanoma greater than 100 µM.
In the case of `Cc1ccc([N+](=O)[O-])cc1S(=O)(=O)Nc1ccc(C2=NN(c3ccc([N+](=O)[O-])cc3[N+](=O)[O-])C(c3ccccc3O)C2)cc1` (configuration not stated), the TGI in the assay on U251 CNS was greater than 100 µM; with NCI/ADR-RES ovarian, greater than 100 µM; in the assay on RXF 393 renal it was greater than 100 µM; in the assay on SN12C renal it was 54 µM; in the assay on HT29 colon, greater than 100 µM; in the assay on BT-549 breast, greater than 100 µM. The compound further displayed a TGI in the assay on NCI-H226 lung greater than 100 µM.
Take `COc1ccc(N2CCN(c3ccc4c(c3)NCC(=O)N4)CC2)cc1`: the TGI with U251 CNS was 68.6 µM; with NCI/ADR-RES ovarian, 68.5 µM; in the assay with SN12C renal it was greater than 100 µM; in the assay with HT29 colon, greater than 100 µM; in the assay with BT-549 breast it was greater than 100 µM; in the assay on NCI-H226 lung, greater than 100 µM. The same compound yielded a TGI with UACC-62 melanoma of 56.5 µM.
Turning to `O=C(NCCO)c1c(O)c2ccccc2[nH]c1=O`, the TGI in the assay with U251 CNS, in the assay on NCI/ADR-RES ovarian, in the assay with RXF 393 renal, with SN12C renal, with HT29 colon and with BT-549 breast was greater than 100 µM in each case. In the assay on NCI-H226 lung, this compound registered a TGI greater than 100 µM.
In the case of `COC(=O)C1(NC(=O)C(N)CC(=O)O)C(C)C1C` (configuration not stated), the TGI with U251 CNS, in the assay on NCI/ADR-RES ovarian, in the assay on RXF 393 renal, in the assay on SN12C renal, in the assay with HT29 colon and in the assay on NCI-H226 lung was greater than 100 µM each time. The compound also had a TGI in the assay with UACC-62 melanoma greater than 100 µM.
Consider `CCCCCCC(CCl)c1sc(-c2csc(CCNC(=O)OC(C)(C)C)n2)nc1C(=O)OC` (configuration not stated), for which the TGI in the assay on U251 CNS turned out to be 38 µM; in the assay with NCI/ADR-RES ovarian it was 14.8 µM; in the assay on SN12C renal it was 38.9 µM; with HT29 colon it was 51.2 µM; in the assay with BT-549 breast, 58.3 µM; with UACC-62 melanoma it was 38.9 µM.
As for `NCCCn1c2c(c3ccc([N+](=O)[O-])cc3c1=O)C(=O)c1cc3c(cc1-2)OCO3`, the GI50 is less than 0.01 µM with SN12C renal, 0.148 µM in the assay with HT29 colon, 0.164 µM with BT-549 breast and 0.0288 µM in the assay on UACC-62 melanoma. Moreover, the TGI in the assay with SN12C renal was 0.385 µM; in the assay on HT29 colon it was greater than 100 µM; in the assay with BT-549 breast, 1.76 µM; in the assay on UACC-62 melanoma it was 1.65 µM.
Take `CCC(=N\NC(N)=S)/C(C)=N/O`: the TGI in the assay with U251 CNS, with NCI/ADR-RES ovarian, with RXF 393 renal, with SN12C renal, with HT29 colon and with NCI-H226 lung was greater than 100 µM each time. Also, the TGI in the assay on UACC-62 melanoma was greater than 100 µM.
